Measurements as given in PubChem BioAssay (NCI).
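Test compounds were applied to cells in 96-well plates for 48 hours at 5 doses. GI50: concentration for 50% inhibition of growth. TGI: concentration producing complete growth inhibition.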

How the values were obtained:
Assay in all cases: DTP human tumour cell line panel, 48 h
EKVX NSCLC = test system: EKVX NSCLC
SK-MEL-28 melanoma = test system: SK-MEL-28 melanoma
HOP-62 NSCLC = test system: HOP-62 NSCLC
HL-60(TB) leukemia = test system: HL-60(TB) leukemia
HCT-116 colon = test system: HCT-116 colon
T-47D breast = test system: T-47D breast
OVCAR-8 ovarian = test system: OVCAR-8 ovarian
HT29 colon = test system: HT29 colon
COLO 205 colon = test system: COLO 205 colon
NCI-H23 lung = test system: NCI-H23 lung
SK-MEL-5 melanoma = test system: SK-MEL-5 melanoma
PC-3 prostate = test system: PC-3 prostate
HCT-15 colon = test system: HCT-15 colon
MDA-MB-231 breast = test system: MDA-MB-231 breast
786-0 renal = test system: 786-0 renal
OVCAR-5 ovarian = test system: OVCAR-5 ovarian
LOX IMVI melanoma = test system: LOX IMVI melanoma
U251 CNS = test system: U251 CNS
CAKI-1 renal = test system: CAKI-1 renal
HCC-2998 colon = test system: HCC-2998 colon
RPMI-8226 leukemia = test system: RPMI-8226 leukemia
SN12C renal = test system: SN12C renal
DU-145 prostate = test system: DU-145 prostate
SR leukemia = test system: SR leukemia
BT-549 breast = test system: BT-549 breast
OVCAR-4 ovarian = test system: OVCAR-4 ovarian
NCI/ADR-RES ovarian = test system: NCI/ADR-RES ovarian
NCI-H522 lung = test system: NCI-H522 lung
SF-539 CNS = test system: SF-539 CNS
UACC-62 melanoma = test system: UACC-62 melanoma
MOLT-4 leukemia = test system: MOLT-4 leukemia
UACC-257 melanoma = test system: UACC-257 melanoma
KM12 colon = test system: KM12 colon
SK-OV-3 ovarian = test system: SK-OV-3 ovarian
SK-MEL-2 melanoma = test system: SK-MEL-2 melanoma
NCI-H226 lung = test system: NCI-H226 lung
ACHN renal = test system: ACHN renal
HOP-92 NSCLC = test system: HOP-92 NSCLC
SW-620 colon = test system: SW-620 colon
MALME-3M melanoma = test system: MALME-3M melanoma
SNB-19 CNS = test system: SNB-19 CNS
IGROV1 ovarian = test system: IGROV1 ovarian
HS 578T breast = test system: HS 578T breast
CCRF-CEM leukemia = test system: CCRF-CEM leukemia
SF-295 CNS = test system: SF-295 CNS
A549 NSCLC = test system: A549 NSCLC
K-562 leukemia = test system: K-562 leukemia
MCF7 breast = test system: MCF7 breast
MDA-MB-435 = test system: MDA-MB-435
OVCAR-3 ovarian = test system: OVCAR-3 ovarian
SF-268 CNS = test system: SF-268 CNS
RXF 393 renal = test system: RXF 393 renal
M14 melanoma = test system: M14 melanoma
SNB-75 CNS = test system: SNB-75 CNS
UO-31 renal = test system: UO-31 renal
TK-10 renal = test system: TK-10 renal
NCI-H460 lung = test system: NCI-H460 lung
A498 renal = test system: A498 renal

Cc1cc(Cl)cc2c(N=Nc3ccc(S(N)(=O)=O)cc3)c(O)[nH]c12
GI50 (EKVX NSCLC): > 25 µM
TGI (EKVX NSCLC): > 25 µM
GI50 (SK-MEL-28 melanoma): > 25 µM
TGI (SK-MEL-28 melanoma): > 25 µM
GI50 (HOP-62 NSCLC): > 25 µM
TGI (HOP-62 NSCLC): > 25 µM
GI50 (HL-60(TB) leukemia): > 25 µM
TGI (HL-60(TB) leukemia): > 25 µM
GI50 (HCT-116 colon): > 25 µM
TGI (HCT-116 colon): > 25 µM
GI50 (T-47D breast): > 25 µM
TGI (T-47D breast): > 25 µM
GI50 (OVCAR-8 ovarian): > 25 µM
TGI (OVCAR-8 ovarian): > 25 µM
GI50 (HT29 colon): > 25 µM
TGI (HT29 colon): > 25 µM
GI50 (COLO 205 colon): > 25 µM
TGI (COLO 205 colon): > 25 µM
GI50 (NCI-H23 lung): > 25 µM
TGI (NCI-H23 lung): > 25 µM
GI50 (SK-MEL-5 melanoma): > 25 µM
TGI (SK-MEL-5 melanoma): > 25 µM
GI50 (PC-3 prostate): > 25 µM
TGI (PC-3 prostate): > 25 µM
GI50 (HCT-15 colon): > 25 µM
TGI (HCT-15 colon): > 25 µM
GI50 (MDA-MB-231 breast): > 25 µM
TGI (MDA-MB-231 breast): > 25 µM
GI50 (786-0 renal): > 25 µM
TGI (786-0 renal): > 25 µM
GI50 (OVCAR-5 ovarian): > 25 µM
TGI (OVCAR-5 ovarian): > 25 µM
GI50 (LOX IMVI melanoma): > 25 µM
TGI (LOX IMVI melanoma): > 25 µM
GI50 (U251 CNS): > 25 µM
TGI (U251 CNS): > 25 µM
GI50 (CAKI-1 renal): > 25 µM
TGI (CAKI-1 renal): > 25 µM
GI50 (HCC-2998 colon): > 25 µM
TGI (HCC-2998 colon): > 25 µM
GI50 (RPMI-8226 leukemia): > 25 µM
TGI (RPMI-8226 leukemia): > 25 µM
GI50 (SN12C renal): > 25 µM
TGI (SN12C renal): > 25 µM
GI50 (DU-145 prostate): > 25 µM
TGI (DU-145 prostate): > 25 µM
GI50 (SR leukemia): > 25 µM
TGI (SR leukemia): > 25 µM
GI50 (BT-549 breast): > 25 µM
TGI (BT-549 breast): > 25 µM
GI50 (OVCAR-4 ovarian): > 25 µM
TGI (OVCAR-4 ovarian): > 25 µM
GI50 (NCI/ADR-RES ovarian): > 25 µM
TGI (NCI/ADR-RES ovarian): > 25 µM
GI50 (NCI-H522 lung): > 25 µM
TGI (NCI-H522 lung): > 25 µM
GI50 (SF-539 CNS): > 25 µM
TGI (SF-539 CNS): > 25 µM
GI50 (UACC-62 melanoma): > 25 µM
TGI (UACC-62 melanoma): > 25 µM
GI50 (MOLT-4 leukemia): > 25 µM
TGI (MOLT-4 leukemia): > 25 µM
GI50 (UACC-257 melanoma): > 25 µM
TGI (UACC-257 melanoma): > 25 µM
GI50 (KM12 colon): > 25 µM
TGI (KM12 colon): > 25 µM
GI50 (SK-OV-3 ovarian): > 25 µM
TGI (SK-OV-3 ovarian): > 25 µM
GI50 (SK-MEL-2 melanoma): > 25 µM
TGI (SK-MEL-2 melanoma): > 25 µM
GI50 (NCI-H226 lung): > 25 µM
TGI (NCI-H226 lung): > 25 µM
GI50 (ACHN renal): > 25 µM
TGI (ACHN renal): > 25 µM
GI50 (HOP-92 NSCLC): > 25 µM
TGI (HOP-92 NSCLC): > 25 µM
GI50 (SW-620 colon): > 25 µM
TGI (SW-620 colon): > 25 µM
GI50 (MALME-3M melanoma): > 25 µM
TGI (MALME-3M melanoma): > 25 µM
GI50 (SNB-19 CNS): > 25 µM
TGI (SNB-19 CNS): > 25 µM
GI50 (IGROV1 ovarian): > 25 µM
TGI (IGROV1 ovarian): > 25 µM
GI50 (HS 578T breast): > 25 µM
TGI (HS 578T breast): > 25 µM
GI50 (CCRF-CEM leukemia): > 25 µM
TGI (CCRF-CEM leukemia): > 25 µM
GI50 (SF-295 CNS): > 25 µM
TGI (SF-295 CNS): > 25 µM
GI50 (A549 NSCLC): > 25 µM
TGI (A549 NSCLC): > 25 µM
GI50 (K-562 leukemia): > 25 µM
TGI (K-562 leukemia): > 25 µM
GI50 (MCF7 breast): > 25 µM
TGI (MCF7 breast): > 25 µM
GI50 (MDA-MB-435): > 25 µM
TGI (MDA-MB-435): > 25 µM
GI50 (OVCAR-3 ovarian): > 25 µM
TGI (OVCAR-3 ovarian): > 25 µM
GI50 (SF-268 CNS): > 25 µM
TGI (SF-268 CNS): > 25 µM
GI50 (RXF 393 renal): > 14.5 µM
TGI (RXF 393 renal): > 25 µM
GI50 (M14 melanoma): > 25 µM
TGI (M14 melanoma): > 25 µM
GI50 (SNB-75 CNS): > 15.6 µM
TGI (SNB-75 CNS): > 25 µM
GI50 (UO-31 renal): > 25 µM
TGI (UO-31 renal): > 25 µM
GI50 (TK-10 renal): > 25 µM
TGI (TK-10 renal): > 25 µM
GI50 (NCI-H460 lung): > 25 µM
TGI (NCI-H460 lung): > 25 µM
GI50 (A498 renal): > 25 µM
TGI (A498 renal): > 25 µM

COc1cc2c(cc1C[C@H]1[C@@H]3C[C@H]4c5c(c6ccccc6n5C)C[C@@H]([C@@H]3CO[C@]1(C)OC(C)=O)N4C)c1c(n2C)C2C[C@H]3C(C(C)=O)=COC[C@H]3[C@H](C1)N2C
TGI (EKVX NSCLC): 2.24 µM
TGI (SK-MEL-28 melanoma): > 25 µM
TGI (HOP-62 NSCLC): 6.29 µM
TGI (HCT-116 colon): 5.39 µM
TGI (T-47D breast): 17.2 µM
TGI (OVCAR-8 ovarian): 8.83 µM
TGI (HT29 colon): 4.86 µM
TGI (COLO 205 colon): 6.19 µM
TGI (NCI-H23 lung): > 25 µM
TGI (SK-MEL-5 melanoma): 6.79 µM
TGI (PC-3 prostate): 2.7 µM
TGI (HCT-15 colon): 6.25 µM
TGI (MDA-MB-231 breast): 11.2 µM
TGI (786-0 renal): 5.89 µM
TGI (OVCAR-5 ovarian): 11.6 µM
TGI (LOX IMVI melanoma): > 25 µM
TGI (U251 CNS): > 25 µM
TGI (CAKI-1 renal): 9.06 µM
TGI (HCC-2998 colon): 0.246 µM
TGI (RPMI-8226 leukemia): 3.56 µM
TGI (SN12C renal): > 25 µM
TGI (DU-145 prostate): > 25 µM
TGI (SR leukemia): 7.62 µM
TGI (BT-549 breast): 13.3 µM
TGI (OVCAR-4 ovarian): > 25 µM
TGI (NCI/ADR-RES ovarian): 8.32 µM
TGI (SF-539 CNS): 5.87 µM
TGI (UACC-62 melanoma): 14.6 µM
TGI (MOLT-4 leukemia): > 25 µM
TGI (UACC-257 melanoma): 8.01 µM
TGI (KM12 colon): 5.27 µM
TGI (SK-OV-3 ovarian): > 25 µM
TGI (SK-MEL-2 melanoma): 15.2 µM
TGI (NCI-H226 lung): 21.7 µM
TGI (ACHN renal): 10.1 µM
TGI (HOP-92 NSCLC): > 25 µM
TGI (SW-620 colon): 11.3 µM
TGI (MALME-3M melanoma): 6.42 µM
TGI (SNB-19 CNS): > 25 µM
TGI (IGROV1 ovarian): > 25 µM
TGI (HS 578T breast): 13.3 µM
TGI (CCRF-CEM leukemia): 5.84 µM
TGI (SF-295 CNS): 10.4 µM
TGI (A549 NSCLC): > 25 µM
TGI (K-562 leukemia): > 25 µM
TGI (MCF7 breast): > 25 µM
TGI (MDA-MB-435): > 25 µM
TGI (OVCAR-3 ovarian): 5.98 µM
TGI (SF-268 CNS): 24 µM
TGI (RXF 393 renal): 6.04 µM
TGI (M14 melanoma): 6.24 µM
TGI (UO-31 renal): > 25 µM
TGI (TK-10 renal): 16.1 µM
TGI (NCI-H460 lung): 8.21 µM
TGI (A498 renal): > 25 µM
